The results in this text go back to patent publication US10975056B2 (GlaxoSmithKline Intellectual Property Development Limited, priority 2016, dated 2021).

The structures appear in SMILES notation. Where “and” joins values, the source holds several entries; their conditions need not be identical. Equal entries are not always repeated. Structures can show the parent of a compound that is named as a salt. Where two headings read alike, the source gives them in different places.

Assay [1] deals with erythroid progenitor cells (EPCs). The assay is described as follows: Fetal hemoglobin (HbF) ELISA in day 7 erythroid progenitor cells.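 Also: for fetal hemoglobin induction normalized to vehicle-treated cells.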 The conditions noted are these: Homo sapiens, Erythroid progenitor cell, HbF ELISA, day 7 EPCs, 5 days; read-out: EPC ELISA (pEC50 category) (converted). Type of assay: cell-based, human. In a few lines: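 CD34+-derived EPCs, 1,000 cells/well, rhEPO 3 U/mL; Compound A 22-pt series, […]; 5 d, 37° C, 5% CO2. Freeze-thaw lysis, anti-HbF capture + HRP anti-HbF, TMB, OD450. Normalized to DMSO wells.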
(In general: In an ELISA, binding on a coated surface is turned into a signal by an enzyme label.)

In another assay the target is DNMT1 (Homo sapiens, UniProt P26358). The experiment in a line: DNMT1 biochemical activity, breaklight assay and/or SPA assay.
Sequence of DNMT1 (P26358 whole entry, looked up): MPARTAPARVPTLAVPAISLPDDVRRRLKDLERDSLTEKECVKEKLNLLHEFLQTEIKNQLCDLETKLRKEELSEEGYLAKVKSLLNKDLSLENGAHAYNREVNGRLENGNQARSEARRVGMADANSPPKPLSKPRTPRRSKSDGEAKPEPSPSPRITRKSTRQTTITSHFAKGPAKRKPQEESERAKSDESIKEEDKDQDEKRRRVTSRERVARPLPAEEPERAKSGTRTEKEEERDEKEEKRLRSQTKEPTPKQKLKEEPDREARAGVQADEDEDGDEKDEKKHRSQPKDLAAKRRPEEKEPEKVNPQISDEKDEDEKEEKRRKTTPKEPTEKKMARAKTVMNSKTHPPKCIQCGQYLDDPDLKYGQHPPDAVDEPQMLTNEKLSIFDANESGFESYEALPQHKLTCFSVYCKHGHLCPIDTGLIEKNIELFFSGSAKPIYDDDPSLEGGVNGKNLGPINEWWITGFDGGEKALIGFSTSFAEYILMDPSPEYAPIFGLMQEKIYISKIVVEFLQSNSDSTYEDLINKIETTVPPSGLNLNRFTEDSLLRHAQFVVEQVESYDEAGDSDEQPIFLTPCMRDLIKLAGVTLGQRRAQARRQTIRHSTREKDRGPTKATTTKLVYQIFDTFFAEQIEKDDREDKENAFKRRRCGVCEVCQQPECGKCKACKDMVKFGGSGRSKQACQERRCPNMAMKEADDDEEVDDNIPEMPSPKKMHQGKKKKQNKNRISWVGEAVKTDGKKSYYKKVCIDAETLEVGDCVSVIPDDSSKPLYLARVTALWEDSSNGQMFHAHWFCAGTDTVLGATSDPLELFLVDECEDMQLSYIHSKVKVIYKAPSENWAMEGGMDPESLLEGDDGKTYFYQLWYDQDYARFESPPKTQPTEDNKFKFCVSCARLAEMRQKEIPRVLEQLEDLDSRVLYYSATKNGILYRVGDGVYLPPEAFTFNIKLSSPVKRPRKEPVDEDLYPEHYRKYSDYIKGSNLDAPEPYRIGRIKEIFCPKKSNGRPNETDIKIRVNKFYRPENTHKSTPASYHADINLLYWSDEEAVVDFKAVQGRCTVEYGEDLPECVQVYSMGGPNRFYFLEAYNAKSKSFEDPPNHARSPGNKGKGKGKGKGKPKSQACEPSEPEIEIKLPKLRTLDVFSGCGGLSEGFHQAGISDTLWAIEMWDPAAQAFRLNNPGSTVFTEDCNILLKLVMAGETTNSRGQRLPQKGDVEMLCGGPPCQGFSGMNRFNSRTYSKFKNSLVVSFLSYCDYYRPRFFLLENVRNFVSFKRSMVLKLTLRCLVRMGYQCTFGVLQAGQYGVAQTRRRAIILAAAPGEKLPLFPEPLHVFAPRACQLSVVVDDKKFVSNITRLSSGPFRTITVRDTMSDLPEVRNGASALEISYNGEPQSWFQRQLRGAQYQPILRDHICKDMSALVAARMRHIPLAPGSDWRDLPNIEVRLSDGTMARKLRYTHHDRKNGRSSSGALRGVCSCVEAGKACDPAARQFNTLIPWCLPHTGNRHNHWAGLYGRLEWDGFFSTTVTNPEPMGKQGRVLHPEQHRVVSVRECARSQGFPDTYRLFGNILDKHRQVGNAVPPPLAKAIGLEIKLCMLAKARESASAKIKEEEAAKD
Setting [2] is: binned activity in either the breaklight or the SPA assay.
Setting [3] is: binned activity in either the breaklight or the SPA assay, read-out: DNMT1 BioChemical (pIC50 category) (converted).
[4] abbreviates: breaklight assay and/or SPA assay, repeated experimental runs, read-out: average pIC50 against DNMT1 (converted).

On to `CCc1c(C#N)c(SC(C(N)=O)c2ccccc2)nc(N(C)C2CC(N)C2)c1C#N` (stereo not drawn) [Example 498, 2-((6-((3-aminocyclobutyl)(methyl)amino)-3,5-dicyano-4-ethylpyridin-2-yl)thio)-2-phenylacetamide], for which the EC50 in assay [1] was 316 to 1000 nM. Moreover, the “DNMT1 BioChemical (pIC50 category)” value at DNMT1 (setting [2]) is listed as “D (Category D: ≥6.5)”.

In the case of `CCc1c(C#N)c(OCCN(C)C)nc(SC(C(N)=O)c2ccccc2)c1C#N` (stereo not drawn) [Example 174, 2-((3,5-Dicyano-6-(2-(dimethylamino)ethoxy)-4-ethylpyridin-2-yl)thio)-2-phenylacetamide], in assay [1], the EC50 was 316 to 1000 nM. Also, the IC50 on DNMT1 (setting [3]) is 316 to 1000 nM.

For `CCc1c(C#N)c(SC(C(N)=O)c2ccccc2)nc(N2CCN(S(=O)(=O)c3ccccc3)CC2)c1C#N` (stereo not drawn) [Example 159, 2-((3,5-Dicyano-4-ethyl-6-(4-(phenylsulfonyl)piperazin-1-yl)pyridin-2-yl)thio)-2-phenylacetamide], the EC50 in assay [1] was 316 to 1000 nM. Further, the IC50 on DNMT1 (setting [3]) was 1000 to 31600 nM.

For `CCc1c(C#N)c(SC(C(N)=O)c2ccccc2)nc(N2CCC(N(C)CC(C)(C)OC)CC2)c1C#N` (stereo not drawn) [Example 492, 2-((3,5-dicyano-4-ethyl-6-(4-((2-methoxy-2-methylpropyl)(methyl)amino)piperidin-1-yl)pyridin-2-yl)thio)-2-phenylacetamide], the EC50 in assay [1] is less than 316 nM. Also, on DNMT1 (setting [2]), the “DNMT1 BioChemical (pIC50 category)” value is “D (Category D: ≥6.5)”.

Turning to `CCc1c(C#N)c(SC(C(N)=O)c2ccccc2)nc(N(C)Cc2nnc[nH]2)c1C#N` (stereo not drawn) [Example 341, 2-((6-(((4H-1,2,4-Triazol-3-yl)methyl)(methyl)amino)-3,5-dicyano-4-ethylpyridin-2-yl)thio)-2-phenylacetamide], the EC50 in assay [1] was less than 316 nM. Also, the “DNMT1 BioChemical (pIC50 category)” value on DNMT1 (setting [2]) is “D (Category D: ≥6.5)”.

In the case of `N#Cc1c(SC(C(N)=O)c2ccccc2)nc(N2CCC(N3CCOCC3)CC2)c(C#N)c1C1CC1` (stereo not drawn) [Example 16], the EC50 in assay [1] is less than 316 nM. At DNMT1 (setting [2]), the “DNMT1 BioChemical (pIC50 category)” value is given as “D (Category D: ≥6.5)”.

For the compound `CCc1c(C#N)c(SC(C(N)=O)c2ccccc2)nc(N(C)CC(=O)NCCCO)c1C#N` (stereo not drawn) [Example 677, 2-((6-((2-amino-2-oxo-1-phenylethyl)thio)-3,5-dicyano-4-ethylpyridin-2-yl)(methyl)amino)-N-(3-hydroxypropyl)acetamide], in assay [1], the EC50 was 316 to 1000 nM. The “DNMT1 BioChemical (pIC50 category)” value at DNMT1 (setting [2]) is on record as “D (Category D: ≥6.5)”.

For the compound `N#Cc1c(SC(C(N)=O)c2ccccc2)nc(N2CC(O)C2)c(C#N)c1C1CC1` (stereo not drawn) [Example 387, 2-((3,5-Dicyano-4-cyclopropyl-6-(13-hydroxyazetidin-1-yl)pyridin-2-yl)thio)-2-phenylacetamide], the EC50 in assay [1] is 1000 to 31600 nM. On DNMT1 (setting [2]), the “DNMT1 BioChemical (pIC50 category)” value is recorded as “D (Category D: ≥6.5)”.

On to `CCc1c(C#N)c(SC(C(N)=O)c2ccccc2)nc(N2CCC(N(C)CC)CC2)c1C#N` (stereo not drawn) [Example 549, 2-((3,5-dicyano-4-ethyl-6-(4-(ethyl(methyl)amino)piperidin-1-yl)pyridin-2-yl)thio)-2-phenylacetamide], for which the EC50 in assay [1] is less than 316 nM. In addition, the “DNMT1 BioChemical (pIC50 category)” value at DNMT1 (setting [2]) is on record as “D (Category D: ≥6.5)”.

Turning to `CCc1c(C#N)c(SCc2ccc(N(C)S(C)(=O)=O)cc2)nc(N2CCOC(CN)C2)c1C#N` (stereo not drawn) [Example 591, N-(4-(((6-(2-(aminomethyl)morpholino)-3,5-dicyano-4-ethylpyridin-2-yl)thio)methyl)phenyl)-N-methylmethanesulfonamide], the EC50 in assay [1] was less than 316 nM. The “DNMT1 BioChemical (pIC50 category)” value at DNMT1 (setting [2]) is recorded as “D (Category D: ≥6.5)”.

In the case of `CCc1c(C#N)c(SCc2ccc(CNC(=O)CCN)cc2)nc(N(C)C)c1C#N` [Example 279, 3-Amino-N-(4-(((3,5-dicyano-6-(dimethylamino)-4-ethylpyridin-2-yl)thio)methyl)benzyl)propanamide], in assay [1], the EC50 is more than 31600 nM. In addition, the IC50 at DNMT1 (setting [3]) was 316 to 1000 nM; at DNMT1 (setting [4]) it was ≥ 1000 nM and 1000 nM.

`CCc1c(C#N)c(S[C@@H](C(N)=O)c2ccccc2)nc(N2CC[C@@H](N)[C@H](F)C2)c1C#N` [Example 518, (R)-2-((6-((3R,4R)-4-amino-3-fluoropiperidin-1-yl)-3,5-dicyano-4-ethylpyridin-2-yl)thio)-2-phenylacetamide, Trifluoroacetic acid salt]: the EC50 in assay [1] is less than 316 nM. In addition, the “DNMT1 BioChemical (pIC50 category)” value on DNMT1 (setting [2]) is “D (Category D: ≥6.5)”.

In the case of `CCc1c(C#N)c(SC(C(N)=O)c2ccccc2)nc(N2CCC(F)(CN)CC2)c1C#N` (stereo not drawn) [Example 618, 2-((6-(4-(aminomethyl)-4-fluoropiperidin-1-yl)-3,5-dicyano-4-ethylpyridin-2-yl)thio)-2-phenylacetamide hydrochloride], the EC50 in assay [1] is less than 316 nM. For the same compound, the “DNMT1 BioChemical (pIC50 category)” value on DNMT1 (setting [2]) is “D (Category D: ≥6.5)”.

On to `CCc1c(C#N)c(SC(C(N)=O)c2ccccc2)nc(N2CCN(Cc3cnc[nH]3)CC2)c1C#N` (stereo not drawn) [Example 188, 2-((6-(4-((1H-lmidazol-5-yl)methyl)piperazin-1-yl)-3,5-dicyano-4-ethylpyridin-2-yl)thio)-2-phenylacetamide], for which the EC50 in assay [1] is 1000 to 31600 nM. On DNMT1 (setting [3]), the IC50 is 316 to 1000 nM.

Consider `CCc1c(C#N)c(SC(C(N)=O)c2ccccc2)nc(N2CCC(O)C2)c1C#N` (stereo not drawn) [Example 370, 2-((3,5-Dicyano-4-ethyl-6-(3-hydroxypyrrolidin-1-yl)pyridin-2-yl)thio)-2-phenylacetamide], for which the EC50 in assay [1] was 1000 to 31600 nM. Also, the IC50 on DNMT1 (setting [3]) is 316 to 1000 nM.

On to `CCc1c(C#N)c(SCc2ccc(CNC(C)=O)cc2)nc(SC(C(N)=O)c2ccccc2)c1C#N` (stereo not drawn) [Example 336, 2-(6-(4-(Acetamidomethyl)benzylthio)-3,5-dicyano-4-ethylpyridin-2-ylthio)-2-phenylacetamide], for which the EC50 in assay [1] is 1000 to 31600 nM. In addition, the IC50 at DNMT1 (setting [3]) was 316 to 1000 nM.

On to `CCc1c(C#N)c(SC(C(N)=O)c2ccc(F)cn2)nc(N2CCC(N3CCCC3)CC2)c1C#N` (stereo not drawn) [Example 211, 2-((3,5-Dicyano-4-ethyl-6-(4-(pyrrolidin-1-yl)piperidin-1-yl)pyridin-2-yl)thio)-2-(5-fluoropyridin-2-yl)acetamide, Formic Acid Salt], for which, in assay [1], the EC50 was less than 316 nM. Besides, the IC50 on DNMT1 (setting [3]) was 316 to 1000 nM.

`CCc1c(C#N)c(C)nc(SC(C(N)=O)c2ccccc2)c1C#N` (stereo not drawn) [Example 283, 2-((3,5-Dicyano-4-ethyl-6-methylpyridin-2-yl)thio)-2-phenylacetamide]: in assay [1], the EC50 was 1000 to 31600 nM. For the same compound, the IC50 at DNMT1 (setting [3]) is 316 to 1000 nM; on DNMT1 (setting [4]) it was 316 to 1000 nM and 631 nM.

Turning to `CCc1c(C#N)c(SC(C(N)=O)c2ccccc2)nc(N2CC[C@H](NCC(C)(C)O)C2)c1C#N` (stereo partly drawn) [Example 541, 2-((3,5-dicyano-4-ethyl-6-((S)-3-((2-hydroxy-2-methylpropyl)amino)pyrrolidin-1-yl)pyridin-2-yl)thio)-2-phenylacetamide], the EC50 in assay [1] was less than 316 nM. The “DNMT1 BioChemical (pIC50 category)” value at DNMT1 (setting [2]) was “D (Category D: ≥6.5)”.

For the compound `CCc1c(C#N)c(SCc2ccc(N3CCCS3(=O)=O)cc2)nc(N2CCC(N)CC2)c1C#N` [Example 600, 2-(4-aminopiperidin-1-yl)-6-((4-(1,1-dioxidoisothiazolidin-2-yl)benzyl)thio)-4-ethylpyridine-3,5-dicarbonitrile], the EC50 in assay [1] is more than 31600 nM. Besides, the “DNMT1 BioChemical (pIC50 category)” value at DNMT1 (setting [2]) is given as “D (Category D: ≥6.5)”.
